The source of these data is patent US12275731B2, “Azaindole inhibitors of wild-type and mutant forms of LRRK2” (DANA-FARBER CANCER INSTITUTE, INC., priority 2018, dated 2025).

Holding throughout (experiment): KinomeScan profiling
What all share (type): binding

One assay has as its target T1, BMPR2 (Homo sapiens, UniProt Q13873).
T1 construct: purchased KinomeScan®
T1 sequence (Q13873 27-1038): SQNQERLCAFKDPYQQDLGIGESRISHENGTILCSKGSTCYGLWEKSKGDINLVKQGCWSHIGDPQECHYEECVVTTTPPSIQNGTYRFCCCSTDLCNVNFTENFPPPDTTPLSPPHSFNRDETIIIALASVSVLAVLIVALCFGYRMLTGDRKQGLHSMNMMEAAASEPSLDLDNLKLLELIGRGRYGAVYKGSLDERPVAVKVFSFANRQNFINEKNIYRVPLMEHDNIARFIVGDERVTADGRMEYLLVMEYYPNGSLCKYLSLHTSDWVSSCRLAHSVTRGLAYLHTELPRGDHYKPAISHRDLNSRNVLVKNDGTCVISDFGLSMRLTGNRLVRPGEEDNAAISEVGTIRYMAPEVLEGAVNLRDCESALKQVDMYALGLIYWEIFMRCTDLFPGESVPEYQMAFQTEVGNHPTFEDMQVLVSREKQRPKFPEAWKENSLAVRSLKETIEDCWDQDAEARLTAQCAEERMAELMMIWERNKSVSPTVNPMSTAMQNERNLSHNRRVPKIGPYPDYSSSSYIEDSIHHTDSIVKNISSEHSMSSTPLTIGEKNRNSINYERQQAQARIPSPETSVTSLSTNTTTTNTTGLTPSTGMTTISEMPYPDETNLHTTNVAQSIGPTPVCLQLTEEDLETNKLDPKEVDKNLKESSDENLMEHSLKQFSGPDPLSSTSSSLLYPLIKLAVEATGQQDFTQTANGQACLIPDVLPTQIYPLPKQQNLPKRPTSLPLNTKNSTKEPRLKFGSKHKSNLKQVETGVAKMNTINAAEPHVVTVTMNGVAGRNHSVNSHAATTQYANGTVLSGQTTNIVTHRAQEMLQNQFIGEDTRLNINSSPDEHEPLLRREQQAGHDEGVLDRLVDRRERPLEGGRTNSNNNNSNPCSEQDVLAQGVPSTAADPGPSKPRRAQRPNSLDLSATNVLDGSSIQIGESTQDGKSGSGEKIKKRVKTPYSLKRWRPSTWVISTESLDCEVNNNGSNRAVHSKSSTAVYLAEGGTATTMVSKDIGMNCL
Particulars: BMPR2, 1 μM; read-out: % control. A digest of the protocol: (§1)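 Luminescence (RLU) was converted to percent of control, with DMSO set as 100% and a reference compound as 0%. Test compounds were run at 1 μM against 468 kinases. Kinases showing below 35% of control were scored as bound.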

The target of another assay is T2, DRAK1 (Homo sapiens, UniProt Q9UEE5).
T2 sequence (Q9UEE5 1-414): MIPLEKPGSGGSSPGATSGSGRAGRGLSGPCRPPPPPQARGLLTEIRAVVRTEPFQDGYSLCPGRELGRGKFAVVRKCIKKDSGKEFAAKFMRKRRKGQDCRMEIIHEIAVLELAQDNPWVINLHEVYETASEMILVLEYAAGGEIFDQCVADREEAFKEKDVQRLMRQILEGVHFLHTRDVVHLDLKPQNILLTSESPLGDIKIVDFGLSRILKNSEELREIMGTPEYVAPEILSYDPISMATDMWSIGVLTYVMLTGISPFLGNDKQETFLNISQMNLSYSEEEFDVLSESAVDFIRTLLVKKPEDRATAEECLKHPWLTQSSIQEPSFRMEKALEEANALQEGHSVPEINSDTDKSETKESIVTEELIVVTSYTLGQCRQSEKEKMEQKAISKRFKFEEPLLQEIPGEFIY
Particulars: DRAK1, 1 μM; read-out: % control. Put shortly:
as §1

In the next assay the target is PAK4 (Homo sapiens, UniProt O96013). Particulars: PAK4, 1 μM; read-out: % control. Put shortly:
as §1

For a further assay, the target named is T3, PIKFYVE (Homo sapiens, UniProt Q9Y2I7).
T3 construct: purchased KinomeScan® (panel service)
T3 sequence (Q9Y2I7 whole entry): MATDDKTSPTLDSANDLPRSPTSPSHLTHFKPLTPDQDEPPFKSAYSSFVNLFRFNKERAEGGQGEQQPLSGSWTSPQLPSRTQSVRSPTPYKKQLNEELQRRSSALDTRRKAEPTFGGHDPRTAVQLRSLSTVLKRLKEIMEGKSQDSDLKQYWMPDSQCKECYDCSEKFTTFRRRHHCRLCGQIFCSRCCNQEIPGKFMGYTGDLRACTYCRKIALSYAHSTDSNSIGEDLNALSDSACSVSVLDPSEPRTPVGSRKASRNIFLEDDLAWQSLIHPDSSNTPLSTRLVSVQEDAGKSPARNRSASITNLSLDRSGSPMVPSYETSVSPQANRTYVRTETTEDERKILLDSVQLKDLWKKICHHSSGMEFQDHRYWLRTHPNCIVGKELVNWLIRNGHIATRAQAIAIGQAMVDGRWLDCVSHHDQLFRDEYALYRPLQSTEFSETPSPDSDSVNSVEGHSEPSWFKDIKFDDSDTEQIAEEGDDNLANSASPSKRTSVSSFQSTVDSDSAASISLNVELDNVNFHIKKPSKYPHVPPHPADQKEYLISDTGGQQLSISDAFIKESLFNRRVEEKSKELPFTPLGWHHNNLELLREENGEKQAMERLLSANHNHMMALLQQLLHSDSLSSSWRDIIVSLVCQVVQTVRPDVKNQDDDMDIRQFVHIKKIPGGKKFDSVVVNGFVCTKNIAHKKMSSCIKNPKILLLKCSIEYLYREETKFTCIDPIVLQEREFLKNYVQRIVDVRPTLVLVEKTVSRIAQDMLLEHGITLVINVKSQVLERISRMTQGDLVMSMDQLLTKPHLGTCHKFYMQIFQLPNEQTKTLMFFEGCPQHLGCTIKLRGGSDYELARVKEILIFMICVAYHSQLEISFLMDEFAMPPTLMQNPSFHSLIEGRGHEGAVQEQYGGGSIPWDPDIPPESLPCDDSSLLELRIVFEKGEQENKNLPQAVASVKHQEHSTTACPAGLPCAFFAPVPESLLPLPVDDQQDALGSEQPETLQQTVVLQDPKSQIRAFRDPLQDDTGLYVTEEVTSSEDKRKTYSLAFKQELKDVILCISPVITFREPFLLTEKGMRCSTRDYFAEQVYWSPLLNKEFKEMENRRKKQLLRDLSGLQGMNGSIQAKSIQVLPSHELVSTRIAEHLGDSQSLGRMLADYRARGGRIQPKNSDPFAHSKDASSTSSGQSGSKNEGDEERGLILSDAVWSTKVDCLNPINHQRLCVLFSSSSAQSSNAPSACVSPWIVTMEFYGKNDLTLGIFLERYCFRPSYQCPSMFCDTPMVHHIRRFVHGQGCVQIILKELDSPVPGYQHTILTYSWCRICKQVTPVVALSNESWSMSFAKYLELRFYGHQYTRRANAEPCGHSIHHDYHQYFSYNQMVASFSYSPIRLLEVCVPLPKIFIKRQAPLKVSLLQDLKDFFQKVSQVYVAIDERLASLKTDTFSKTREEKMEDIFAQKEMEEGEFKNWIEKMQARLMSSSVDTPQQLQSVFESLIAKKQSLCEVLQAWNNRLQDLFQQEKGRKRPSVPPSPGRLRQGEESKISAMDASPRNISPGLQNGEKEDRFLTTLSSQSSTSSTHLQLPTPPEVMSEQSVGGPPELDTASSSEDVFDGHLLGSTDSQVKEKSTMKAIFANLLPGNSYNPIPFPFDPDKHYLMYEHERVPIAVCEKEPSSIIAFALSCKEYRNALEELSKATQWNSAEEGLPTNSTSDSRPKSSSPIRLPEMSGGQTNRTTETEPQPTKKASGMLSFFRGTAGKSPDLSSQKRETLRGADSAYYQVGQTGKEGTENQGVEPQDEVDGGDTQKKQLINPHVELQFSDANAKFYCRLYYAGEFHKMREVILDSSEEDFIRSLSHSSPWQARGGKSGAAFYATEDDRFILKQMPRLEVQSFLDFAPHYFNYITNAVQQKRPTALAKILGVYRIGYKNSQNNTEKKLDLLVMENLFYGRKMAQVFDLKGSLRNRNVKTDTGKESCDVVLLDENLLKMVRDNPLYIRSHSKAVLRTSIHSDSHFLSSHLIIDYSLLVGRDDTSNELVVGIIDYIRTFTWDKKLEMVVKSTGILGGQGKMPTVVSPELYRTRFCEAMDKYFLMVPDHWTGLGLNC
Particulars: read-out: % control. A digest of the protocol:
as §1

In a further assay the target is T4, PRKD1 (Homo sapiens, UniProt Q15139).
T4 sequence (Q15139 1-912): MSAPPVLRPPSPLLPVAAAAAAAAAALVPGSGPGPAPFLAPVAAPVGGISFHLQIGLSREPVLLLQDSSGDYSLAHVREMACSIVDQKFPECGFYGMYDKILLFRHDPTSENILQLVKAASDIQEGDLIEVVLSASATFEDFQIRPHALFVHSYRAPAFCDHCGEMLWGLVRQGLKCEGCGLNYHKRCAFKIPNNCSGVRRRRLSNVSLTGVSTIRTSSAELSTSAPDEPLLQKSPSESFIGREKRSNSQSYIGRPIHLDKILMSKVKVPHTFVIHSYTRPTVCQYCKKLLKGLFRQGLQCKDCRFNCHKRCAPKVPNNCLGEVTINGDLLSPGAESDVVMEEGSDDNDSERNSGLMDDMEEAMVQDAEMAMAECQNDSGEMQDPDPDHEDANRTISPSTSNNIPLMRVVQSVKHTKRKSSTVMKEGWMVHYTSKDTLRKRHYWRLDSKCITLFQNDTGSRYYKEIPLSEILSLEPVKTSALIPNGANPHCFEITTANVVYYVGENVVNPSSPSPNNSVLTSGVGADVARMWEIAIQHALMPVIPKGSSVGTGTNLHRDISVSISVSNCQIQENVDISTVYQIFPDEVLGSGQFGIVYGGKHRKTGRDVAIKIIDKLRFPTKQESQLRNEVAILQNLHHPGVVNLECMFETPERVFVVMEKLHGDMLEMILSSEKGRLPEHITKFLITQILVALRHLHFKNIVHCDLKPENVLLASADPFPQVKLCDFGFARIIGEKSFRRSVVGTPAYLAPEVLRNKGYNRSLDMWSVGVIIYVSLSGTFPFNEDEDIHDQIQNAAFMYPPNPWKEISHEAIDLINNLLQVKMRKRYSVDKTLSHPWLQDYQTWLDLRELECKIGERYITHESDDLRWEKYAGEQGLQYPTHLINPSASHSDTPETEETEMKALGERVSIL
Particulars: PRKD1, 1 μM; read-out: % control. A digest of the protocol:
as §1

Sequence of PAK4 (O96013 whole entry): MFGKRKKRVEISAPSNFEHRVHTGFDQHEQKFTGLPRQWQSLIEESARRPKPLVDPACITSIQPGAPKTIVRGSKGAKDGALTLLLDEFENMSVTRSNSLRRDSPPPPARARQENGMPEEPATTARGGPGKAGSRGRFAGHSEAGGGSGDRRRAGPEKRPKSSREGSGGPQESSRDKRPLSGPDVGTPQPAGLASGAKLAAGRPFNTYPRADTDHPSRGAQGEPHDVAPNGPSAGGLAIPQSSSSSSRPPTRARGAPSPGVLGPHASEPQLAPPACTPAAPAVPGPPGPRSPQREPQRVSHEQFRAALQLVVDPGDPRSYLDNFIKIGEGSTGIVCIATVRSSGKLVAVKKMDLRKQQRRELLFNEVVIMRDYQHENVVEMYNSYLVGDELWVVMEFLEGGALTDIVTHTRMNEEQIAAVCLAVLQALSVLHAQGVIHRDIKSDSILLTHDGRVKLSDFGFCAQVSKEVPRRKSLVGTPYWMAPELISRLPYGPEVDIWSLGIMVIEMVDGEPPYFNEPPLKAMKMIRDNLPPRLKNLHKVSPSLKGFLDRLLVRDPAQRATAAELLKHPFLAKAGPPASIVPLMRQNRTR

For `CNc1c(-c2ccc(C(=O)N3CCC(N4CCOCC4)CC3)cc2)cnc2[nH]cc(Cl)c12` [Compound 96, (4-(3-chloro-4-(methylamino)-1H-pyrrolo[2,3-b]pyridin-5-yl)phenyl)(4-morpholinopiperidin-1-yl)methanone], the remaining binding at 1 µM on BMPR2 came out at 53%; on DRAK1 it was 56%; at PAK4 it was 31%; at PIKFYVE, 66%; on PRKD1, 19%.
The corresponding values for `O=C(c1ccc(-c2cnc3[nH]cc(Cl)c3c2NC2CCCC2)cc1)N1CCC(N2CCOCC2)CC1` [Compound 101, (4-(3-chloro-4-(cyclopentylamino)-1H-pyrrolo[2,3-b]pyridin-5-yl)phenyl)(4-morpholinopiperidin-1-yl)methanone] are 98%, 100%, 100%, 98% and 48%.
Take `CNc1c(-c2cnn([C@H]3CCN(C(C)=O)C[C@@H]3F)c2)cnc2[nH]cc(Cl)c12` [Compound 77, 1-((3S,4S)-4-(4-(3-chloro-4-(methylamino)-1H-pyrrolo[2,3-b]pyridin-5-yl)-1H-pyrazol-1-yl)-3-fluoropiperidin-1-yl)ethan-1-one]: the remaining binding at 1 µM came out at 40% at BMPR2; 81% at DRAK1; 65% on PAK4; 53% on PIKFYVE; 58% on PRKD1.
